Results from patent US10258602B2 (Ocera Therapeutics, Inc., priority 2007, dated 2019).

target: human growth hormone secretagogue receptor (hGHS-R1a) (Homo sapiens, UniProt Q92847); test: Competitive radioligand binding assay (ghrelin receptor), standard method A; conditions: binding activity at the human ghrelin receptor, standard method A
Source text: A competitive binding assay at the human growth hormone secretagogue receptor (hGHS-R1a) can be carried out analogously to assays described in the literature. (Bednarek, M. A.; et al. J. Med. Chem. 2000, 43, 4370-4376; Palucki, B. L.; et al. Bioorg. Med. Chem. Lett. […], 11, 1955-1957.) See also U.S. patent application Ser. Nos. 11/149,512 and 11/149,731. Binding activity at the gherlin receptor for representative compounds of the present invention is shown in the Examples below.

Chain of human growth hormone secretagogue receptor (hGHS-R1a) (Q92847 whole entry): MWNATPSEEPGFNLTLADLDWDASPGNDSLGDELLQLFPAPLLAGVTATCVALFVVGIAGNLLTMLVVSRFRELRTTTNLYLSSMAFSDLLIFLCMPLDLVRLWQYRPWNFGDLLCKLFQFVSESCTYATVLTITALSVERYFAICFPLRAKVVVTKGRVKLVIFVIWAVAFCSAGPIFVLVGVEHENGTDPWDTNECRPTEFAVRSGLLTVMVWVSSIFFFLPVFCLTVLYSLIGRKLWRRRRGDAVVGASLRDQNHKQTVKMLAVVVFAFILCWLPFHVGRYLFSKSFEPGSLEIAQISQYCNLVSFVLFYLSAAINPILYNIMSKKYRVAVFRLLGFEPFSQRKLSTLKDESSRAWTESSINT

Compound | Ki [nM]
C[C@@H]1C(=O)N[C@H]([C@@H](C)c2ccc(O)cc2)C(=O)NCCCc2nccc3c2O[C@H](CC3)CN[C@@H](C2CC2)C(=O)N1C [Compound 1076] | ≤ 100
C[C@@H]1C(=O)N[C@H](Cc2ccc(O)cc2)C(=O)NCCCc2cccc3c2OC(CN[C@@H](C2CC2)C(=O)N1C)C3 (stereo partly drawn) [Compound 1025] | ≤ 500
CC1CNC(C2CC2)C(=O)N(C)C(C)C(=O)NC(Cc2ccc(O)c(F)c2)C(=O)NCCCc2ccccc2O1 (mixture of isomers) [Compound 1049] | ≤ 100
C[C@@H]1C(=O)N[C@H](Cc2ccc(F)cc2)C(=O)NCCCc2cccc3c2OC(CC3)CN[C@@H](C2CC2)C(=O)N1C (stereo partly drawn) [Compound 946] | ≤ 10
CC1C(=O)NC(Cc2ccc(O)c(F)c2)C(=O)NCCCc2ncccc2OCCNC(C2CC2)C(=O)N1C (mixture of isomers) [Compound 1078] | ≤ 100
C[C@@H]1CN[C@@H](C2CC2)C(=O)N(C)[C@H](C)C(=O)N[C@H](Cc2ccc(O)c(F)c2)C(=O)NCCCc2ccccc2O1 [Compound 1104] | ≤ 100
C[C@@H]1CN[C@@H](C2CC2)C(=O)N(C)[C@H](C)C(=O)N[C@H](C(C)(C)c2ccc(F)cc2)C(=O)NCCCc2ccccc2O1 [Compound 1035] | ≤ 100
C[C@@H]1C(=O)N[C@H](Cc2ccccc2)C(=O)NCCCc2cccc3c2OC(CC3)CN[C@@H](C2CC2)C(=O)N1C (stereo partly drawn) [Compound 874] | ≤ 100
CC1CNC(C2CC2)C(=O)N(C)C(C)C(=O)NC(Cc2ccccc2O)C(=O)NCCCC2CCCCC2O1 (mixture of isomers) [Compound 1115] | ≤ 500
CC[C@H](C)[C@@H]1NCCOc2ccccc2CCCNC(=O)[C@@H](Cc2ccccc2)NC(=O)[C@@H](CF)N(C)C1=O [Compound 954] | ≤ 500
CC[C@H](C)[C@@H]1NCCOc2cccnc2CCCNC(=O)[C@@H](Cc2ccc(O)cc2)NC(=O)[C@@H](C)N(C)C1=O [Compound 992] | ≤ 100
C[C@@H]1CN[C@@H](C2CC2)C(=O)N(C)[C@H](C)C(=O)N[C@H]([C@@H](C)c2ccc(O)cc2)C(=O)NCCCc2ncccc2O1 [Compound 1082] | ≤ 500
CC(C)[C@@H]1NC[C@H](C)Oc2ccccc2CCCNC(=O)[C@@H](Cc2ccccc2)NC(=O)[C@@H](C)N(C)C1=O [Compound 870] | ≤ 500
C[C@H]1CNC(=O)[C@@H](Cc2ccc(F)cc2)NC(=O)[C@@H](C)N(C)C(=O)[C@H](C2CC2)NC[C@@H](C)Oc2ccccc2C1 [Compound 1005] | ≤ 100
CO[C@H](C)[C@@H]1NC[C@@H](C)Oc2cccnc2CCCNC(=O)[C@@H](Cc2ccc(F)cc2)NC(=O)[C@@H](C)N(C)C1=O [Compound 1032] | ≤ 500
C[C@@H]1C(=O)N[C@H](Cc2ccc(F)cc2)C(=O)NCCCc2cccc3c2O[C@@H](CC3)CN[C@@H](C2CC2)C(=O)N1C [Compound 1016] | ≤ 100
CC1CNC(C2CCCCC2)C(=O)N(C)C(C)C(=O)NC(Cc2ccc(O)cc2)C(=O)NCCCc2ccccc2O1 (stereo not drawn) [Compound 1108] | ≤ 1
CC1CNC(C2CC2)C(=O)N(C)C(C)C(=O)NC(Cc2ccc(F)cc2)C(=O)NCCCC2CCCCC2O1 (mixture of isomers) [Compound 1052] | ≤ 1
CC[C@H](C)[C@@H]1NC[C@@H](C)Oc2cc(F)ccc2CCCNC(=O)[C@@H](Cc2ccc(F)cc2)NC(=O)[C@@H](C)N(C)C1=O [Compound 856] | ≤ 500
CCC[C@@H]1NC[C@@H](C)Oc2ccccc2CCCNC(=O)[C@@H](Cc2ccc(Cl)cc2)NC(=O)[C@@H](C)N(C)C1=O [Compound 863] | ≤ 100
CC[C@H](C)[C@@H]1NC[C@@H](C)Oc2cccnc2CCCNC(=O)[C@@H](Cc2ccc(O)cc2)NC(=O)[C@@H](C)N(C)C1=O [Compound 1026] | ≤ 100
CCC[C@@H]1NC[C@@H](C)Oc2ccccc2CCCNC(=O)[C@@H](Cc2ccc(OC)cc2)NC(=O)[C@@H](C)N(C)C1=O [Compound 866] | ≤ 100
C[C@@H]1CN[C@@H](C2CC2)C(=O)N(C)[C@H](C)C(=O)N[C@H](Cc2ccc(O)cc2)C(=O)NCCCc2ncccc2O1 [Compound 1023] | ≤ 100
CC[C@H](C)[C@@H]1NC[C@@H](C)Oc2cccnc2CCCNC(=O)[C@@H](Cc2ccccc2)NC(=O)[C@@H](C)N(C)C1=O [Compound 1030] | ≤ 100
C[C@@H]1CN[C@@H](C2CC2)C(=O)N(C)[C@H](C)C(=O)N[C@H](Cc2ccc(O)cc2)C(=O)NCCCc2cccc(F)c2O1 [Compound 991] | ≤ 100
CC[C@H](C)[C@@H]1NC[C@@H](C)Oc2c(F)cccc2CCCNC(=O)[C@@H](Cc2ccc(O)cc2)NC(=O)[C@@H](C)N(C)C1=O [Compound 994] | ≤ 100
CC[C@H](C)[C@@H]1NC[C@@H](C)Oc2c(F)cccc2CCCNC(=O)[C@@H](Cc2cccnc2)NC(=O)[C@@H](C)N(C)C1=O [Compound 974] | ≤ 100

Continued, values first:

Ki [nM] | Compound
≤ 100 | C[C@@H]1C(=O)N[C@H](Cc2cccs2)C(=O)NCCCc2ncccc2OCCN[C@@H](C2CC2)C(=O)N1C [Compound 995]
≤ 500 | C[C@@H]1CN[C@@H](C2CC2)C(=O)N(C)[C@H](C)C(=O)N[C@H](C(C)(C)C)C(=O)NCCCc2ccccc2O1 [Compound 1014]
≤ 10 | C[C@@H]1C(=O)N[C@H](Cc2ccccc2Cl)C(=O)NCCCc2ccccc2OCCN[C@@H](C2CC2)C(=O)N1C [Compound 872]
≤ 500 | COC(=O)C[C@H]1NC(=O)[C@@H](C)N(C)C(=O)[C@H](C2CC2)NC[C@@H](C)Oc2ccccc2CCCNC1=O [Compound 1090]
≤ 500 | CC(C)C[C@H]1NC(=O)[C@@H](C)N(C)C(=O)[C@H](C2CC2)NC[C@@H]2CCc3cccc(c3O2)CCCNC1=O [Compound 1015]
≤ 10 | CC1C(=O)NC(Cc2ccc(F)cc2)C(=O)NCCCc2c(F)cccc2OCCNC(C2CC2)C(=O)N1C (stereo not drawn) [Compound 1109]
> 500 | C[C@@H]1CN[C@@H](C2CC2)C(=O)N(C)[C@H](C)C(=O)N[C@H](CC(=O)O)C(=O)NCCCc2ccccc2O1 [Compound 1036]
≤ 1 | CC(C)C[C@H]1NC(=O)[C@@H](C)N(C)C(=O)[C@H](C2CCCCC2)NC[C@@H](C)Oc2ccccc2CCCNC1=O [Compound 1099]
≤ 500 | CC(C)C[C@H]1NC(=O)[C@@H](C)N(C)C(=O)[C@H](C2CC2)NC[C@@H](C)Oc2c(Cl)cccc2CCCNC1=O [Compound 1006]
≤ 100 | C[C@@H]1C(=O)N[C@H]([C@@H](C)c2ccc(O)cc2)C(=O)NCCCc2ncccc2OCCN[C@@H](C2CC2)C(=O)N1C [Compound 1080]
≤ 100 | C[C@@H]1CN[C@@H](C2CC2)C(=O)N(C)[C@H](C)C(=O)N[C@H](Cc2ccccc2)C(=O)NCCCc2ccccc2O1 [Compound 851]
≤ 500 | CC(C)[C@@H]1CN[C@@H](C2CC2)C(=O)N(C)[C@H](C)C(=O)N[C@H](Cc2ccc(Cl)cc2)C(=O)NCCCc2ccc(F)cc2O1 [Compound 966]
> 500 | C[C@@H]1CN[C@@H](C2CC2)C(=O)N(C)[C@H](C)C(=O)N[C@H](c2ccc(O)cc2)C(=O)NCCCc2ccccc2O1 [Compound 1103]
≤ 10 | CC[C@H](C)[C@@H]1NC[C@@H](C)Oc2c(F)cccc2CCCNC(=O)[C@@H](CC(C)C)NC(=O)[C@@H](C)N(C)C1=O [Compound 981]
≤ 500 | CC(C)C[C@H]1NC(=O)[C@@H](C)N(C)C(=O)[C@H](C2CC2)NC[C@@H](C)Oc2cccnc2CC[C@H](C)NC1=O [Compound 1088]
≤ 500 | CC1CNC(C2CC2)C(=O)N(C)C(C)C(=O)NC(C(C)(C)C)C(=O)NCCCc2cccc(F)c2O1 (stereo not drawn) [Compound 1044]
≤ 100 | C[C@@H]1C(=O)N[C@H](Cc2ccc(O)cc2)C(=O)N[C@@H](C)CCc2ccccc2OCCN[C@@H](C2CC2)C(=O)N1C [Compound 1083]
≤ 100 | C[C@@H]1CN[C@@H](C2CC2)C(=O)N(C)[C@H](C)C(=O)N[C@H](Cc2ccc(F)c(F)c2)C(=O)NCCCc2ccccc2O1 [Compound 1040]
≤ 100 | C[C@@H]1C(=O)N[C@H](Cc2ccc(F)cc2)C(=O)NCCCc2ccccc2OC(C)(C)CN[C@@H](C2CC2)C(=O)N1C [Compound 1003]
≤ 100 | C[C@@H]1CN[C@@H](C2CC2)C(=O)N(C)[C@H](C)C(=O)N[C@H]([C@@H](C)c2ccc(O)cc2)C(=O)NCCCc2ccccc2O1 [Compound 1068]
≤ 100 | C[C@@H]1CN[C@@H](C2CC2)C(=O)N(C)[C@H](C)C(=O)N[C@H](Cc2c(F)c(F)c(F)c(F)c2F)C(=O)NCCCc2ccccc2O1 [Compound 1042]
≤ 100 | CC(C)CC1NC(=O)C(C)N(C)C(=O)C(C2CC2)NCCOC2CCCCC2CCCNC1=O (stereo not drawn) [Compound 1106]
≤ 100 | C[C@@H]1CN[C@@H](C2CC2)C(=O)N(C)[C@H](C)C(=O)N[C@H](Cc2ccc(C(F)(F)F)cc2)C(=O)NCCCc2ccccc2O1 [Compound 1038]
≤ 100 | CC(=O)Oc1ccc(CC2NC(=O)C(C)N(C)C(=O)C(C3CC3)NCC(C)Oc3ccccc3CCCNC2=O)cc1F (mixture of isomers) [Compound 1065]
≤ 500 | CC[C@H](C)[C@@H]1NC[C@@H](C)Oc2cccnc2CCCNC(=O)[C@@H](CC(C)C)NC(=O)[C@@H](C)N(C)C1=O [Compound 1000]
> 500 | CC(C)C[C@H]1NC(=O)[C@@H](C)N(C)C(=O)[C@H](C2CC2)NCCOc2cnccc2CCCNC1=O [Compound 1021]
> 500 | CC(C)C[C@H]1NC(=O)[C@@H](C)N(C)C(=O)[C@H](C2CC2)NCCOc2cccnc2CCCNC1=O [Compound 986]
≤ 500 | CC(C)[C@@H]1CN[C@@H](C2CC2)C(=O)N(C)[C@H](C)C(=O)N[C@H](Cc2ccccc2)C(=O)NCCCc2ccc(F)cc2O1 [Compound 965]
≤ 100 | CC(C)CC1NC(=O)C(C)N(C)C(=O)C(C2CC2)NCCOc2cccc(F)c2CCCNC1=O (stereo not drawn) [Compound 1111]
≤ 100 | CC(=O)Oc1c(Br)cc(C[C@H]2NC(=O)[C@@H](C)N(C)C(=O)[C@H](C3CC3)NC[C@@H](C)Oc3ccccc3CCCNC2=O)cc1Br [Compound 1066]
